According to patent US20170035011A1, “METHODS OF IMPROVING GERMINATION OF PLANT EMBRYOS” (WEYERHAEUSER NR COMPANY, priority 2015, published 2017):

Legend:
manufactured seed = experiment: Root initiation with palatinose in synthetic gametophyte of manufactured seed; type: in vivo; settings: palatinose from 0 to 40 g/l in 20 g/l increments; base sugar sucrose or glucose
From the text: The beneficial properties of palatinose are not limited to multiplication. The addition of palatinose to the synthetic gametophyte of manufactured seed has benefits for root initiation. […] This is true when the base sugar was sucrose or glucose.

loblolly pine SE = experiment: Development stage studies with palatinose in maltose and glucose media; type: cell-based; settings: standard maltose and glucose media
From the text: In loblolly pine SE studies, palatinose was initially used as a non-metabolizable sugar for supplementing osmotic level. […] When used as a part of liquid multiplication media its effect depended on the sugar moieties it was associated with, and its ratio with those moieties. When paired with maltose alone, growth was largely or completely halted depending on sugar ratio, whereas when used with glucose, growth was like control (maltose only).

loblolly pine embryos = experiment: Germination and germinant organ lengths of resulting embryos, Example 2; type: in vivo
From the text: As used herein, the term “germination” refers to a physiological process that results in the elongation and growth of a plant embryo organs (root, hypocotyls, cotyledons) and initiation of leaves (epicotyl by the shoot apex located at the base of the cotyledons) after 1 week in the dark followed by 6 weeks in a light room at room temperature.
As used herein, the term “category 1” germination is defined by presence of a minimum of a 3 mm root, and a tuft of at least 5 epicotyl leaves, each approximately 5 mm long.
“Category 2” germination is defined as for category 1, but where epicotyls leaf presence is observed, but not meeting the 5 leaves by 5 mm length specification.
Several parameters may be measured to determine the quality of the germinants, such as root, hypocotyl, longest cotyledon leaf length, and epicotyls leaf length. […]
The responses analyzed for this report are the weekly growth, embryos per d-frame, category 1 germination, and for category 1+2: germination, germinants per d-frame, root length, the hypocotyl length, and the epicotyl length.
The proportion responses are analyzed using a generalized linear model with a logit link and binomial distribution after categorizing as a 0/1 response. The continuous responses were analyzed with a mixed linear model after taking the log transformation to account for increasing variability with higher means. […]

With `O=C(CO)[C@@H](O)[C@H](O)[C@H](O)CO[C@H]1O[C@H](CO)[C@@H](O)[C@H](O)[C@H]1O` [palatinose, 6-O-α-d-glucopyranosyl-D-fructose] the root presence (manufactured seed) was “root presence improved”, the embryo formation (loblolly pine SE) was “inhibited embryo formation” and the “category 1 germination percentage” value (loblolly pine embryos; combining the outcomes of 3, 5, and 7 weeks of treatment) was 9.1%.

For `OC[C@H]1O[C@H](O[C@H]2O[C@H](CO)[C@@H](O)[C@H](O)[C@H]2O)[C@H](O)[C@@H](O)[C@@H]1O` [trehalose], the “Category 1 germination” value (loblolly pine embryos; Table 7 comparison) was “no evidence that adding trehalose had an effect”.
